Measurements as given in patent publication US6121323A, “Bishydroxyureas” (3M Innovative Properties Company, priority 1997, dated 2000).

Experiments:
[1] = biological target: T1, 5-lipoxygenase (Homo sapiens, UniProt P09917); test: 5-Lipoxygenase inhibition in human leukocytes (LTC4 by radioimmunoassay); type: cell-based; conditions: A23187 stimulated, LTC4 readout, read-out: IC50 (concentration producing 50% leukotriene biosynthesis inhibition)
T1 construct: endogenous in cells; host or cells: leukocytes from whole human blood (EDTA, dextran sedimentation, hypotonic lysis)
T1 sequence (P09917 1-674): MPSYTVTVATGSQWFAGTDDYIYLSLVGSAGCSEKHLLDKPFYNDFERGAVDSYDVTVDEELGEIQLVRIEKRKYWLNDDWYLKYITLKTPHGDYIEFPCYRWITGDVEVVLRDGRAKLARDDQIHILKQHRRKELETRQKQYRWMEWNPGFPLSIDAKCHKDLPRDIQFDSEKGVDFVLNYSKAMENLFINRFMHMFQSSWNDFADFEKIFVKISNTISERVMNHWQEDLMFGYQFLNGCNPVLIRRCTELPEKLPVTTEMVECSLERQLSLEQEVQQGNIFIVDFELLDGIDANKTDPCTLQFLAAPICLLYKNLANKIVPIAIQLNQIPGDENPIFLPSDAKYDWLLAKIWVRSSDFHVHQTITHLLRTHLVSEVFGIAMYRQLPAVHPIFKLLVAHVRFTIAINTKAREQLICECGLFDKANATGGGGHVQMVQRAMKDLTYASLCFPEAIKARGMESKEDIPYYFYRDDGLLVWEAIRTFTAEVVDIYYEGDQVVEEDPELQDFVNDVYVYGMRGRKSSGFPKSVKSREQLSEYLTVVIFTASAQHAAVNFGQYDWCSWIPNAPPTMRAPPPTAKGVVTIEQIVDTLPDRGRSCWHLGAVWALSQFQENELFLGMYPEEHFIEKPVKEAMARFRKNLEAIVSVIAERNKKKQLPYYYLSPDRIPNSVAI
Protocol: 5-LIPOXYGENASE INHIBITION IN HUMAN LEUKOCYTES
The test method described below measures the ability of compounds of the invention to inhibit 5-lipoxygenase activity in human leukocytes.
Whole human blood is collected by venipuncture into EDTA (1.4 mL of 0.25M per 60 mL of whole blood). The red blood cells are sedimented with a 6% dextran/0.9% sodium chloride solution at a ratio of 25 mL whole blood to 15 mL dextran solution. The blood/dextran combination is mixed by inversion and the red blood cells are allowed to settle out for 45 minutes at ambient temperature. The plasma/dextran supernatant is removed then centrifuged at ambient temperature at 3000 rpm for 10 minutes. The plasma/dextran supernatant is removed and the cells are resuspended in 10 mL of the plasma/dextran solution. The cell suspension is combined with 20 mL of water, mixed for 1.5 minutes then immediately combined with 10 mL of 3.6% sodium chloride, mixed and centrifuged at ambient temperature at 3000 rpm for 10 minutes. The pellet is washed with 40 mL of Tris buffer (5.55 mM dextrose, 15.36 mM Tris base, 136.9 mM sodium chloride with pH 7.3-7.4) then centrifuged at 3000 rpm for 10 minutes. The pellet is then resuspended into Tris buffer containing 1 mM calcium chloride to provide approximately 1.0×10^7 cells/mL.
Compounds are dissolved in dimethyl sulfoxide. Compounds are tested at concentrations of 100, 33, 11, 3.7, 1.2 and 0.41 μM. Each concentration is tested in duplicate.
A 15 μL portion of Tris buffer containing 1 mM calcium chloride is added to each well of a 96 well microtiter plate. A 1 μL portion of drug solution or vehicle (dimethyl sulfoxide) is added to each well followed by the addition of a 75 μL portion of the cell suspension. The plates are gently mixed then allowed to stand at ambient temperature for 10 minutes. A 10 μL portion of 30 μM A23187 Calcium Ionophore (prepared by dissolving the ionophore in DMSO and then diluting 1:80 into the Tris buffer) is added to each well except the wells that contain the blanks. The blank wells measure the level of LTC4 production in the absence of A23187. The plates are gently mixed then incubated at 37° C. for 10 minutes.
Following incubation the plates are centrifuged at 2000 rpm for 1.5 minutes and the supernatant is removed as quickly as possible to stop the reaction. The supernatants are frozen at -20° C. until they are assayed.
The supernatants are assayed for the presence of Leukotriene C4 by radioimmunoassay which is performed according to the manufacturer's instructions (Advanced Magnetics; Cambridge, Mass.). Inhibition of leukotriene biosynthesis is calculated as the ratio of the amount of LTC4 formed in the presence (LTC4 +cpd) and absence (LTC4 no cpd) of compound according to the following equation. [formula] IC50 values (concentrations of compound producing 50% leukotriene biosynthesis inhibition) are calculated by linear regression analysis of percentage inhibition versus log compound concentration plots.

[2] = system: Leukotriene B4 production in rat blood; test: Rat ex vivo Leukotriene B4 inhibition; type: in vivo; conditions: 50 mg/Kg oral, 2 hours post dose, ex vivo A23187 challenge
Protocol: RAT EX VIVO LEUKOTRIENE B4 INHIBITION
The test method described below measures the ability of a compound when administrated orally to rats to inhibit the production of Leukotriene B4 in their blood which is drawn and challenged.
Rats (CD, male, non-fasted, 250 g) are lightly anesthetized with carbon dioxide and an approximately 0.75 mL sample of whole blood is obtained via cardiac puncture. The sample is dispensed into 12×75 mm polypropylene tubes containing 8-10 μL of 10,000 units/mL heparin, mixed and then maintained on ice. The rats are allowed to recover approximately one hour then dosed orally with compound dissolved in PEG 400 at a 5 mL/Kg volume. Five (5) rats are utilized per group. Two (2) hours post dose the rats are again anesthetized with carbon dioxide and the blood sampled again via cardiac puncture.
Duplicate 200 μL portions of blood are added to 1.0 mL polypropylene tubes. A 10 μL portion of 1 mM A23 187 Calcium Ionophore in dimethyl sulfoxide/Tris buffer is added to each tube. The tubes are gently vortexed then incubated in a 37° C. water bath for 30 minutes. The tubes are then centrifuged at 4000 rpm for 10 minutes. 50 μL portions of plasma are transferred to 1.0 mL tubes containing 200 μL of methanol. The tubes are vortexed then placed in the freezer overnight.
The tubes are removed from the freezer then centrifuged at 4000 rpm for 10 minutes. 20 μL portions of the methanol/plasma supernatant and 10 μl methanol dilutions of LTB4 standard are transferred to 96 well v-bottom microtiter plates. The plates are vacuum dried at 40° C. A 40 μL portion of LTB4 radioimmunoassay buffer is added to each well. The plate is bath sonicated for 5 minutes then assayed according to the manufacturer's instructions (Advanced Magnetics; Cambridge, Mass.). Percent inhibition values are obtained by comparing the level of LTB4 in the post-dose samples to the level in the pre-dose samples according to the equation below. [formula]

SMILES | IC50 [1] [nM] | inhibition in vivo at 50 mg/kg [2] [%]
CCc1cc(Cc2cc(CC)c(NC(=O)N(C)O)c(CC)c2)cc(CC)c1NC(=O)N(C)O [Example 4, 4,4'-Methylenebis(1-hydroxy-1-methyl-3-(2,6-diethylphenyl)urea)] | 4220 | 
CN(O)C(=O)Nc1ccc(C(c2ccc(NC(=O)N(C)O)cc2)(C(F)(F)F)C(F)(F)F)cc1 [Example 5, 4,4'-(2,2-Hexafluoropropane)bis(1-hydroxy-1-methyl-3-phenylurea)] | 24 | 
CN(O)C(=O)Nc1ccc(Oc2ccc(NC(=O)N(C)O)cc2)cc1 [Example 6, 4,4'-Oxybis(1-hydroxy-1-methyl-3-phenylurea)] | 216 | 
CN(O)C(=O)Nc1cccc(NC(=O)N(C)O)c1 [Example 7, 1,1'-(m-Phenylene)bis(3-hydroxy-3-methylurea)] | 5900 | 59
CN(O)C(=O)Nc1cccc2c(NC(=O)N(C)O)cccc12 [Example 8, 1,1'-(1,5-Naphthalene)bis(3-hydroxy-3-methylurea)] | 5600 | 
CN(O)C(=O)N[C@H]1CC[C@H](NC(=O)N(C)O)CC1 [Example 9, trans-1,4-Cyclohexanebis(3-hydroxy-3-methylurea)] | > 10000 | 4
O=C(NCCCCCCNC(=O)N(O)Cc1ccccc1)N(O)Cc1ccccc1 [Example 10, 1,1'-Hexamethylenebis(3-hydroxy-3-benzylurea)] | 100 | 8
COc1cc(-c2ccc(NC(=O)N(C)O)c(OC)c2)ccc1NC(=O)N(C)O [Example 11] | 100 | 4
